Test system: C3H/10T1/2 clone 8 cells
Assay: Two-stage transformation assay in C3H10T1/2 cells
Type: cell-based, mouse
Settings: DMBA (0.25 μg/ml), TPA (0.1 μg/ml)
Experimental: This 10T1/2 cell line of mouse embryo fibroblasts has been widely used as an experimental system to study neoplastic transformation induced by a variety of agents, such as polycyclic hydrocarbons, methylating agents, and X-rays. Two-stage transformation assays, with 3-methylcholanthrene (MCA) or DMBA as inducer and TPA as promoter, were performed in these tests.
C3H10T1/2 Cl 8 cells were purchased from the American Type Culture Collection (ATCC CCL 226, Rockville, Md.) and maintained in Eagle's basal medium with Earle's salts (EBME) containing 10% (v/v) fetal bovine serum (FBS, Gibco Laboratories, Chagrin Falls, Ohio) without antibiotics, and sodium bicarbonate (2.2 gl). Cells were seeded at 5×10^4 per 75 cm^2 flask and grown in a humidified incubator containing 5% carbon dioxide in air at 37° C. Cells used in all these experiments were passage between 10-13.
Two-stage transformation assays in C3H10T1/2 cells were performed according to a procedure modified from that described in Mondal et al. (1976) Cancer Res. 36:2254-2260. One thousand cells obtained from freshly confluent flasks were seeded per well in 12-well plate containing 2 ml of medium (12 wells per experimental point). After incubation at 37° C. for three days, MCA or DMBA (2 mg/ml stock solution in DMSO) was added to give final concentrations of 0.25 μg/ml. Carcinogen-containing medium was removed from the growing cultures after 24 hours and cells were rinsed once with PBS before addition of fresh EBME supplemented with 10% FBS and gentamycin (25 μg/ml). […] TPA and test compounds were added to the medium each time the medium was changed. Medium was changed on all plates twice weekly. After confluency was reached, the FBS concentration was reduced to 5% and amphotericin B (fungizone, 1.5 μg/ml) was added to the medium (see Reznikoff et al. (1973) Cancer Res. 33:3239-3249 and Bertram (1979) Cancer Lett. 7:289-298). Subsequent medium changes were performed weekly. Cultures were fixed with methanol and stained with Giemsa at the seventh week. Type II and III transformed foci were scored according to the teachings of Landolph “Transformation Assay of Established Cell Lines: Mechanism and Application,” Eds. Kakunaga et al. (Toronto: Oxford University Press, 1985), at pp. 185-199.

[1] = all-trans-retinyl acetate (0.3 μg/ml)

Row | SMILES | No. of wells foci/total no. of wells (aspirin 200 μM) | Total No. of foci/no. wells scored (aspirin 200 μM) | Total No. type II (aspirin 200 μM) | Total No. type III (aspirin 200 μM) | Wells with foci (%) (aspirin 200 μM) | No. of wells foci/total no. of wells [1] | Total No. of foci/no. wells scored [1] | Total No. type II [1] | Total No. type III [1] | Wells with foci (%) [1]
1 | CC(=O)Oc1ccccc1C(=O)O [aspirin] | 0/12 | 0/12 | 0 | 0 | 0% | – | – | – | – | –
2 | CC(=O)OC/C=C(C)/C=C/C=C(C)/C=C/C1=C(C)CCCC1(C)C [all-trans-retinyl acetate] | – | – | – | – | – | 0/12 | 0/12 | 0 | 0 | 0%

Reference: US6414037B1 (Pharmascience, priority 1998, dated 2002)
